Earlier results, collected in paper PMC9947563, “Identification of the molecular determinants of antagonist potency in the allosteric binding pocket of human P2X4” (Frontiers in Pharmacology, 2023).
Read-outs that look alike come from different tables or passages of the source.

Columns and labels:
[1] = system: P2X7; set-up: method as in Tian M. et al., 2020; details: ref Tian M. et al., 2020; cited from earlier work
[2] = system: P2X1; set-up: method as in Tian M. et al., 2020; details: ref Tian M. et al., 2020; cited from earlier work
[3] = system: hP2X4; details: cited from earlier work

O=C(Nc1cc(C(F)(F)F)cc(C(F)(F)F)c1)c1cccc(Cl)c1O [Tian-13]
IC50 [1]: 177 ± 11 nM
IC50 [2]: 58 ± 21.9 nM
IC50 ([3]; ref Tian M. et al., 2020, read-out: P2X4 IC50): 48.8 ± 11 nM
IC50 ([3]; ref Tian et al. (2020), read-out: hP2X4 IC50): 49 nM
